The record followed here is patent publication US4001414A, “1,3,4-Trimethyl-2-(3,4,5-trimethoxybenzyl)-1,2,5,6-tetrahydropyridine and analgesic composition and method using it” (priority 1974, dated 1977).

The structures appear in SMILES notation.

What is called LD50 is the dose at which mortality reaches 50%. A lower LD50 goes with greater toxicity.

Data set [1] has as its system acetic acid-induced writhing. Briefly: Analgesic activity, acetic acid-induced writhing technique. The data set is classed as in vivo, albino I.C.R. Swiss mice. Particulars: for No. of writhes (x ± M.S.E.): acetic acid 0.25 ml of 1% i.p. after 30 minutes, writhes counted in 20 minutes, p <0.001, control 112.2 ± 4.2, average value ± mean standard error; for analgesic activity (in words): as may be seen from Table B, mice. On the procedure: The analgesic activity was investigated in albino I.C.R. Swiss mice, using the acetic acid-induced writhing technique. Groups each of 10 mice were assembled.
The analgesics were injected intraperitoneally, and after 30 minutes 0.25 ml of a 1% solution of acetic acid was injected intraperitoneally. A control group received only acetic acid. The numbers of writhes made by each mouse was counted in the 20 minutes following administration of the acetic acid.

A short description of data set [2]: Acute toxicity (LD50), i.p., method of Litchfield and Wilcoxon. Particulars: mouse, in vivo, ip; I.C.R. Swiss mice, both sexes, 30 ± 2 g, intraperitoneal. On the procedure: Acute toxicity studies were conducted in I.C.R. Swiss mice weighing 30 ± 2 g, of both sexes. The products were administered intraperitoneally (i.p.). The acute toxicity calculations were made by the method of Litchfield and Wilcoxon.

As to `CCC(=O)O[C@](Cc1ccccc1)(c1ccccc1)[C@H](C)CN(C)C` [Dextropropoxyphene, reference compound], the “No. of writhes (x ± M.S.E.)” value in data set [1] (25 mg/kg i.p.) was 22.8 ± 4.74.

`COc1cc(C[N+]2(C)CCC(C)=C(C)C2)cc(OC)c1OC.[Cl-]` (stereo not drawn) [Product II, 1,3,4-trimethyl-1-(3,4,5-trimethoxybenzyl)-1,2,5,6-tetrahydropyridinium chloride]: in data set [1] (20 mg/kg i.p.), the “No. of writhes (x ± M.S.E.)” value is reported as 53.6 ± 4.7 and the “analgesic activity (in words)” value was “have analgesic activity”. In data set [2], this compound displayed an LD50 of 77 mg/kg.

Turning to `COc1cc(CC2C(C)=C(C)CCN2C)cc(OC)c1OC` (stereo not drawn) [Product I, 1,3,4-trimethyl-2-(3,4,5-trimethoxybenzyl)-1,2,5,6-tetrahydropyridine], in data set [1] (20 mg/kg i.p.), the “No. of writhes (x ± M.S.E.)” value was determined as 74.5 ± 4.84 and the “analgesic activity (in words)” value is listed as “have analgesic activity”.
